Laboratory results taken from ChEMBL document CHEMBL1153814, “Synthesis of 3-deoxypentacyclic triterpene derivatives as inhibitors of glycogen phosphorylase” (J Nat Prod, 2009).

molecular target: T1, Glycogen phosphorylase, muscle form (Oryctolagus cuniculus, UniProt P00489); assay: Inhibition of rabbit muscle glycogen phosphorylase assessed as release of phosphate from glucose-1-phosphate after 25 mins; conditions: not given
T1 sequence (P00489 whole entry): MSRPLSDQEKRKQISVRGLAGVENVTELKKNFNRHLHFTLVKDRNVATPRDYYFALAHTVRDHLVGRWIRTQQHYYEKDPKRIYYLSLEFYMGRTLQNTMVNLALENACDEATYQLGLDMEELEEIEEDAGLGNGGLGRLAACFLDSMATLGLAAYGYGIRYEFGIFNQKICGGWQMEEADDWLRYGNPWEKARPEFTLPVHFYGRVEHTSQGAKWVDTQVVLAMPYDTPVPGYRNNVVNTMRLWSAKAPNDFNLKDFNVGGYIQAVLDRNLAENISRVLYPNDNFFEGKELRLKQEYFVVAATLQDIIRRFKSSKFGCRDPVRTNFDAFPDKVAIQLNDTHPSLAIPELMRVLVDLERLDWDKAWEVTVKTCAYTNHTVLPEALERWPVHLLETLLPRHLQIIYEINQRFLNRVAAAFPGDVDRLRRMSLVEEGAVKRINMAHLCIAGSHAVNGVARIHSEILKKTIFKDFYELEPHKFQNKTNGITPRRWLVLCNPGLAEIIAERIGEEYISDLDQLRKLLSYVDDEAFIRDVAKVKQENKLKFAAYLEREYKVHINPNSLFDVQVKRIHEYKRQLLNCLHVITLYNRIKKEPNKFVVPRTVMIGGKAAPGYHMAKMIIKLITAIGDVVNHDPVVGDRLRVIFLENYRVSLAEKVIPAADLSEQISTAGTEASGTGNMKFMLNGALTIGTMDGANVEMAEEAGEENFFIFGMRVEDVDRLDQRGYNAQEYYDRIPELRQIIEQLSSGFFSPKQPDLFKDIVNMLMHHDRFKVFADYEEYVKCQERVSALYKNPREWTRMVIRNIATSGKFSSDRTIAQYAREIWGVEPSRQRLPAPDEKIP

Row | IC50 | Compound
1 | Not Active | CC1(C)CC[C@]2(C(=O)O)CC[C@]3(C)C(=CC[C@@H]4[C@@]5(C)C[C@@H](OC(=O)CCC(=O)O)CC(C)(C)[C@@H]5CC[C@]43C)[C@@H]2C1
2 | Not Active | CC(=O)O[C@H]1CC(C)(C)[C@@H]2CC[C@]3(C)[C@H](CC=C4[C@@H]5CC(C)(C)CC[C@]5(C(=O)OCc5ccccc5)CC[C@]43C)[C@@]2(C)C1

same assay, conditions: read-out: IC50

Row | Compound | IC50 [µM]
3 | CCC(=O)O[C@H]1CC(C)(C)[C@@H]2CC[C@]3(C)[C@H](CC=C4[C@@H]5CC(C)(C)CC[C@]5(C(=O)OCc5ccccc5)CC[C@]43C)[C@@]2(C)C1 | 121
4 | CCCC(=O)O[C@H]1CC(C)(C)[C@@H]2CC[C@]3(C)[C@H](CC=C4[C@@H]5CC(C)(C)CC[C@]5(C(=O)OCc5ccccc5)CC[C@]43C)[C@@]2(C)C1 | 108
5 | CCCC(=O)O[C@H]1CC(C)(C)[C@@H]2CC[C@]3(C)[C@H](CC=C4[C@@H]5CC(C)(C)CC[C@]5(C(=O)O)CC[C@]43C)[C@@]2(C)C1 | 75.6
6 | CC1(C)CC[C@]2(C(=O)OCc3ccccc3)CC[C@]3(C)C(=CC[C@@H]4[C@@]5(C)C[C@@H](OC(=O)c6ccccc6)CC(C)(C)[C@@H]5CC[C@]43C)[C@@H]2C1 | 48.4
7 | CC1(C)CC[C@]2(C(=O)O)CC[C@]3(C)C(=CC[C@@H]4[C@@]5(C)C[C@@H](OC(=O)c6ccccc6)CC(C)(C)[C@@H]5CC[C@]43C)[C@@H]2C1 | 40.7
8 | CC1(C)CC[C@]2(C(=O)OCc3ccccc3)CC[C@]3(C)C(=CC[C@@H]4[C@@]5(C)C[C@@H](OC(=O)CCC(=O)O)CC(C)(C)[C@@H]5CC[C@]43C)[C@@H]2C1 | 80.9
9 | CC1(C)CC[C@]2(C(=O)OCCCCBr)CC[C@]3(C)C(=CC[C@@H]4[C@@]5(C)C[C@H](O)CC(C)(C)[C@@H]5CC[C@]43C)[C@@H]2C1 | 48.7
10 | C[C@@H]1[C@H]2C3=CC[C@@H]4[C@@]5(C)C[C@@H](O)CC(C)(C)[C@@H]5CC[C@@]4(C)[C@]3(C)CC[C@@]2(C(=O)OCc2ccccc2)CCC1(C)C | 5.6
11 | CC1(C)CC[C@]2(C(=O)OCc3ccccc3)CC[C@]3(C)C(=CC[C@@H]4[C@@]5(C)C[C@H](O)CC(C)(C)[C@@H]5CC[C@]43C)[C@@H]2C1 | 4.2
12 | CCCCOC(=O)[C@]12CCC(C)(C)C[C@H]1C1=CC[C@@H]3[C@@]4(C)C[C@H](O)CC(C)(C)[C@@H]4CC[C@@]3(C)[C@]1(C)CC2 | 13.8
13 | C=CCOC(=O)[C@]12CCC(C)(C)C[C@H]1C1=CC[C@@H]3[C@@]4(C)C[C@H](O)CC(C)(C)[C@@H]4CC[C@@]3(C)[C@]1(C)CC2 | 23.1
14 | COC(=O)[C@]12CCC(C)(C)C[C@H]1C1=CC[C@@H]3[C@@]4(C)C[C@H](O)CC(C)(C)[C@@H]4CC[C@@]3(C)[C@]1(C)CC2 | 28.1
15 | CCOC(=O)[C@]12CCC(C)(C)C[C@H]1C1=CC[C@@H]3[C@@]4(C)C[C@H](O)CC(C)(C)[C@@H]4CC[C@@]3(C)[C@]1(C)CC2 | 15.3
16 | CCCOC(=O)[C@]12CCC(C)(C)C[C@H]1C1=CC[C@@H]3[C@@]4(C)C[C@H](O)CC(C)(C)[C@@H]4CC[C@@]3(C)[C@]1(C)CC2 | 27.3
17 | CC1(C)CC[C@]2(C(=O)OCCBr)CC[C@]3(C)C(=CC[C@@H]4[C@@]5(C)C[C@H](O)CC(C)(C)[C@@H]5CC[C@]43C)[C@@H]2C1 | 25.4
18 | CC1(C)CC[C@]2(C(=O)OCCCBr)CC[C@]3(C)C(=CC[C@@H]4[C@@]5(C)C[C@H](O)CC(C)(C)[C@@H]5CC[C@]43C)[C@@H]2C1 | 37.2
19 | CC1(C)CC[C@]2(C(=O)OCc3ccccc3)CC[C@]3(C)C(=CC[C@@H]4[C@@]5(C)CC(=O)CC(C)(C)[C@@H]5CC[C@]43C)[C@@H]2C1 | 3.2
20 | CC1(C)CC[C@]2(C(=O)OCc3ccccc3)CC[C@]3(C)C(=CC[C@@H]4[C@@]5(C)C/C(=N\O)CC(C)(C)[C@@H]5CC[C@]43C)[C@@H]2C1 | 16.3
21 | CCOC(=O)COC(=O)[C@]12CCC(C)(C)C[C@H]1C1=CC[C@@H]3[C@@]4(C)C[C@H](O)CC(C)(C)[C@@H]4CC[C@@]3(C)[C@]1(C)CC2 | 22.5
22 | CC(=O)O[C@H]1CC(C)(C)[C@@H]2CC[C@]3(C)[C@H](CC=C4[C@@H]5CC(C)(C)CC[C@]5(C(=O)O)CC[C@]43C)[C@@]2(C)C1 | 42.4
23 | CCC(=O)O[C@H]1CC(C)(C)[C@@H]2CC[C@]3(C)[C@H](CC=C4[C@@H]5CC(C)(C)CC[C@]5(C(=O)O)CC[C@]43C)[C@@]2(C)C1 | 80.2

Continued, values first:

Row | IC50 [µM] | Compound
24 | 22.3 | CC1CC[C@]2(C(=O)OCc3ccccc3)CC[C@]3(C)C(=CC[C@@H]4[C@@]5(C)C[C@H](O)CC(C)(C)[C@@H]5CC[C@]43C)[C@@H]2[C@H]1C (stereo partly specified)
25 | 55.8 | C[C@H]1[C@H](C)CC[C@]2(C(=O)OCc3ccccc3)CC[C@]3(C)C(=CC[C@@H]4[C@@]5(C)C[C@@H](O)CC(C)(C)[C@@H]5CC[C@]43C)[C@H]12
26 | 20.2 | C[C@H]1[C@H](C)CC[C@]2(C(=O)OCc3ccccc3)CC[C@]3(C)C(=CC[C@@H]4[C@@]5(C)C/C(=N\O)CC(C)(C)[C@@H]5CC[C@]43C)[C@H]12
27 | 8.5 | CC1(C)CC[C@]2(C(=O)O)CC[C@]3(C)C(=CC[C@@H]4[C@@]5(C)C[C@@H](O)CC(C)(C)[C@@H]5CC[C@]43C)[C@@H]2C1
28 | 14.7 | C[C@H]1[C@H](C)CC[C@]2(C(=O)O)CC[C@]3(C)C(=CC[C@@H]4[C@@]5(C)C/C(=N\O)CC(C)(C)[C@@H]5CC[C@]43C)[C@H]12
29 | 24.2 | C[C@H]1[C@H](C)CC[C@]2(C(=O)OCc3ccccc3)CC[C@]3(C)C(=CC[C@@H]4[C@@]5(C)CC(=O)CC(C)(C)[C@@H]5CC[C@]43C)[C@H]12
30 | 13.1 | CC1(C)CC[C@]2(C(=O)O)CC[C@]3(C)C(=CC[C@@H]4[C@@]5(C)C/C(=N\O)CC(C)(C)[C@@H]5CC[C@]43C)[C@@H]2C1
31 | 1.2 | C[C@H]1[C@H](C)CC[C@]2(C(=O)O)CC[C@]3(C)C(=CC[C@@H]4[C@@]5(C)C[C@@H](O)CC(C)(C)[C@@H]5CC[C@]43C)[C@H]12
32 | 3.5 | CC1(C)CC[C@]2(C(=O)O)CC[C@]3(C)C(=CC[C@@H]4[C@@]5(C)C[C@H](O)CC(C)(C)[C@@H]5CC[C@]43C)[C@@H]2C1
33 | 5.5 | C[C@@H]1[C@H]2C3=CC[C@@H]4[C@@]5(C)C[C@H](O)CC(C)(C)[C@@H]5CC[C@@]4(C)[C@]3(C)CC[C@@]2(C(=O)O)CC[C@@H]1C
34 | 14.9 | CC1(C)CC[C@]2(C(=O)O)CC[C@]3(C)C(=CC[C@@H]4[C@@]5(C)CC(=O)CC(C)(C)[C@@H]5CC[C@]43C)[C@@H]2C1
35 | 28.9 | C[C@H]1[C@H](C)CC[C@]2(C(=O)O)CC[C@]3(C)C(=CC[C@@H]4[C@@]5(C)CC(=O)CC(C)(C)[C@@H]5CC[C@]43C)[C@H]12
36 | 15.3 | C[C@H]1[C@H](C)CC[C@]2(C(=O)O)CC[C@]3(C)C(=CC[C@@H]4[C@@]5(C)CC[C@H](O)C(C)(C)[C@@H]5CC[C@]43C)[C@H]12 [URSOLIC ACID]
